Measurements taken from the supplement of paper PMC13380429.

What was measured:
Caco-2 [1] = experiment: drug sensitivity score (DSS) for viability; higher = more toxic; extreme values may be limits of the assay; details: 72 h
Vero E6 [2] = experiment: as above; details: 72 h
HepG2 [3] = experiment: as above; details: 72 h
Calu-3 [4] = experiment: as above; details: 72 h
U2OS [5] = experiment: as above; details: 72 h
A549-ACE2 [6] = experiment: drug-induced phospholipidosis relative to tamoxifen; higher = more phospholipidosis
[7] = tested on: A549-ACE2 infected with SARS-CoV-2; experiment: SARS-CoV-2 infection rate relative to DMSO; higher = more infection; details: 24 h
[8] = tested on: A549-ACE2 infected with SARS-CoV-2; experiment: cell count relative to DMSO; higher = less toxic; details: 24 h
Caco-2 [9] = experiment: relative viability EC50 (midpoint between 100% and the lowest measured viability); higher = less toxic; details: 72 h
Vero E6 [10] = experiment: as above; details: 72 h
HepG2 [11] = experiment: as above; details: 72 h
Calu-3 [12] = experiment: as above; details: 72 h
U2OS [13] = experiment: as above; details: 72 h
Caco-2 [14] = experiment: cell viability relative to DMSO; higher = less toxic; details: 72 h
Vero E6 [15] = experiment: as above; details: 72 h
HepG2 [16] = experiment: as above; details: 72 h
Calu-3 [17] = experiment: as above; details: 72 h
U2OS [18] = experiment: as above; details: 72 h
[19] = tested on: A549-ACE2 infected with SARS-CoV-2; experiment: morphology score (similarity to uninfected cells); higher = more like uninfected cells; details: 24 h
A549-ACE2 [20] = experiment: phospholipidosis EC50; higher = less potent phospholipidosis inducer

C=C[C@@]1(C)CC(=O)[C@]2(O)[C@@]3(C)[C@@H](O)CCC(C)(C)[C@@H]3[C@H](OC(=O)CCN(C)C)[C@H](OC(C)=O)[C@@]2(C)O1 [colforsin-daproate]
Details	drug sensitivity score	relative viability EC50 [µM]
Caco-2 [1]	0.1	–
Caco-2 [9]	–	> 10
Calu-3 [4]	0	–
Calu-3 [12]	–	> 10
HepG2 [3]	0	–
HepG2 [11]	–	> 10
U2OS [5]	0	–
U2OS [13]	–	> 10
Vero E6 [2]	1.3	–
Vero E6 [10]	–	> 10

drug-induced phospholipidosis [%], A549-ACE2 [6]
Details	0.3 µM	0.833333 µM	3.33333 µM	6.66667 µM	10 µM	30 µM
24 h	-0.11	-0.39	-2.43	1	1.72	23.6
48 h	0.82	-1.25	-1.96	0.45	2.53	34.6
72 h	2.97	-1.9	-2.38	-1.51	0.457	–

Details	SARS-CoV-2 infection rate, [7] [%]	cell count, [8] [%]	cell viability, Caco-2 [14] [%]	cell viability, Calu-3 [17] [%]	cell viability, HepG2 [16] [%]	cell viability, U2OS [18] [%]	cell viability, Vero E6 [15] [%]	morphology score, [19]
1 nM	–	–	101	103	93.9	105	98	–
10 nM	–	–	98.9	95.5	100	103	93.9	–
0.1 µM	88	99	–	–	–	–	–	0.33
100 nM	–	–	109	99.2	94	102	96.5	–
0.3 µM	98	105	–	–	–	–	–	0.05
1 µM	106	105	–	–	–	–	–	-0.06
1000 nM	–	–	94	106	100	101	90.5	–
3 µM	108	104	–	–	–	–	–	-0.03
10000 nM	–	–	89.1	98.9	95.3	97.3	77	–

CCN(CC)CCCC(C)Nc1c2ccc(Cl)cc2nc2ccc(OC)cc12 (stereo not drawn) [mepacrine]
Details	drug sensitivity score
Calu-3 [4]	5.7
HepG2 [3]	8.9
U2OS [5]	4
Vero E6 [2]	7.2

Details	morphology score, 0.1 µM	morphology score, 0.3 µM	morphology score, 1 µM	morphology score, 3 µM	phospholipidosis EC50, 24 h [µM]	phospholipidosis EC50, 48 h [µM]	phospholipidosis EC50, 72 h [µM]
A549-ACE2 [20]	–	–	–	–	15.8	5.62	3
[19]	0.52	0.52	0.63	0.79	–	–	–

O=c1[nH]c2ccccc2n1C1CCN(CCCC(c2ccc(F)cc2)c2ccc(F)cc2)CC1 [pimozide]
Details	drug sensitivity score	relative viability EC50 [µM]
Caco-2 [1]	0	–
Caco-2 [9]	–	> 10
Calu-3 [4]	0	–
Calu-3 [12]	–	> 10
HepG2 [3]	0	–
HepG2 [11]	–	> 10
U2OS [5]	0	–
U2OS [13]	–	> 10
Vero E6 [2]	0	–
Vero E6 [10]	–	> 10

drug-induced phospholipidosis [%], A549-ACE2 [6]
Details	0.3 µM	0.833333 µM	3.33333 µM	6.66667 µM	10 µM	30 µM
24 h	4.09	5.84	24.5	59.8	64.4	78
48 h	4.99	5.4	17.8	56.9	81	99.5
72 h	6.59	6.94	22.7	60.3	85.3	111

Details	SARS-CoV-2 infection rate [%]	cell count [%]	cell viability [%]	morphology score	phospholipidosis EC50 [µM]
A549-ACE2 [20], 24 h	–	–	–	–	4.66
A549-ACE2 [20], 48 h	–	–	–	–	6.29
A549-ACE2 [20], 72 h	–	–	–	–	6.67
Caco-2 [14], 1 nM	–	–	92.2	–	–
Caco-2 [14], 10 nM	–	–	99.1	–	–
Caco-2 [14], 100 nM	–	–	98	–	–
Caco-2 [14], 1000 nM	–	–	94.6	–	–
Caco-2 [14], 10000 nM	–	–	95.7	–	–
Calu-3 [17], 1 nM	–	–	100	–	–
Calu-3 [17], 10 nM	–	–	95.5	–	–
Calu-3 [17], 100 nM	–	–	95.2	–	–
Calu-3 [17], 1000 nM	–	–	100	–	–
Calu-3 [17], 10000 nM	–	–	93.9	–	–
HepG2 [16], 1 nM	–	–	119	–	–
HepG2 [16], 10 nM	–	–	114	–	–
HepG2 [16], 100 nM	–	–	108	–	–
HepG2 [16], 1000 nM	–	–	85.2	–	–
HepG2 [16], 10000 nM	–	–	104	–	–
U2OS [18], 1 nM	–	–	99.4	–	–
U2OS [18], 10 nM	–	–	102	–	–
U2OS [18], 100 nM	–	–	99.5	–	–
U2OS [18], 1000 nM	–	–	104	–	–
U2OS [18], 10000 nM	–	–	94.6	–	–
Vero E6 [15], 1 nM	–	–	106	–	–
Vero E6 [15], 10 nM	–	–	88.7	–	–
Vero E6 [15], 100 nM	–	–	104	–	–
Vero E6 [15], 1000 nM	–	–	94.2	–	–
Vero E6 [15], 10000 nM	–	–	104	–	–
[7], 0.3 µM	99	–	–	–	–
[7], 3 µM	83	–	–	–	–
[7], 10 µM	20	–	–	–	–
[7], 30 µM	33	–	–	–	–
[8], 0.3 µM	–	92	–	–	–
[8], 3 µM	–	108	–	–	–
[8], 10 µM	–	113	–	–	–
[8], 30 µM	–	86	–	–	–
[19], 0.3 µM	–	–	–	-0.1	–
[19], 3 µM	–	–	–	0.46	–
[19], 10 µM	–	–	–	0.79	–
[19], 30 µM	–	–	–	0.31	–
